Laboratory results from the supplement of paper PMC5844555.

Key:
Assay in all cases: 3' UTR reporter interaction score (median-centred robust z-score of log2 firefly/Renilla activity); higher = less repression of the 3' UTR reporter
Conditions in all cases: HEK293T; 48 h
[1] = tested on: TP53
Outline: (§1)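 HEK293T cells were seeded at 10,000 per well in 96-well plates and co-transfected with DharmaFECT Duo, using 100 ng of a firefly luc2P reporter carrying the gene's 3' UTR, 20 ng of Renilla pRL-TK control and 2.5 pmol of miRNA mimic. Both luciferase activities were measured 48 h after transfection. The interaction score is the log-transformed firefly/Renilla ratio, converted to a per-plate robust z-score from the median and median absolute deviation and then median-centred per miRNA, with more negative values indicating interaction. Scores were averaged across at least two independent screens.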

[2] = tested on: NOTCH1
Outline: as §1

[3] = tested on: RB1
Outline: as §1

[4] = tested on: EZH2
Outline: as §1

[5] = tested on: MYC
Outline: as §1

[6] = tested on: FBXW7
Outline: as §1

[7] = tested on: PHOX2B
Outline: as §1

[8] = tested on: MYT1L
Outline: as §1

[9] = tested on: MYCN
Outline: as §1

[10] = tested on: BRCA2
Outline: as §1

[11] = tested on: HRAS
Outline: as §1

[12] = tested on: PHF6
Outline: as §1

[13] = tested on: ZEB2
Outline: as §1

[14] = tested on: MYB
Outline: as §1

Row | Sequence | 3' UTR reporter interaction score [1] | 3' UTR reporter interaction score [2] | 3' UTR reporter interaction score [3] | 3' UTR reporter interaction score [4] | 3' UTR reporter interaction score [5] | 3' UTR reporter interaction score [6] | 3' UTR reporter interaction score [7] | 3' UTR reporter interaction score [8] | 3' UTR reporter interaction score [9] | 3' UTR reporter interaction score [10] | 3' UTR reporter interaction score [11] | 3' UTR reporter interaction score [12] | 3' UTR reporter interaction score [13] | 3' UTR reporter interaction score [14]
1 | AGCAGCAUUGUACAGGGCUAUCA | -0.509 | -0.476 | 1.3 | -1 | 0.869 | -2.69 | -0.507 | -2.1 | 0.215 | 1.96 | 0.106 | 1.3 | 1.43 | -2.18
2 | AGCAGCAUUGUACAGGGCUAUGA | 0.727 | -0.182 | -1.15 | -0.463 | 1.13 | -0.997 | 1.07 | -1.07 | 0.0597 | 0.461 | -0.255 | 2.88 | 0.465 | -1.03
3 | AGCUACAUCUGGCUACUGGGUCUC | 0.614 | 0.41 | -3.28 | -0.0907 | 0.941 | 0.465 | 0.255 | -0.398 | 1.39 | -0.144 | 1.2 | -0.555 | -1.04 | -3.44
4 | AGCUACAUUGUCUGCUGGGUUUC | 0.277 | 0.703 | -3.13 | 0.0119 | 0.427 | 1.22 | 0.602 | -0.38 | 0.451 | -0.328 | 0.0503 | -0.314 | -0.124 | -4.52
5 | AGCUCGGUCUGAGGCCCCUCAG | 0.0655 | 1.23 | 3.69 | -0.671 | -0.504 | 0.253 | -1.22 | 3.65 | -0.643 | 1.86 | 0.284 | 0.229 | 2.05 | 0.304
6 | AGCUGGUGUUGUGAAUC | 0.136 | 0.152 | -0.243 | -0.157 | 0.179 | -0.398 | 0.54 | 0.16 | 0.275 | -0.493 | -0.334 | -0.508 | 0.43 | 0.129
7 | AGCUGUCUGAAAAUGUCUU | 0.132 | -0.774 | 0.19 | -0.132 | 0.303 | 0.675 | 1.04 | 0.171 | -0.701 | -0.293 | -0.208 | -0.786 | -0.552 | -0.536
8 | AGGAAGCCCUGGAGGGGCUGGAGGU | 0.127 | -1.34 | -0.165 | -0.359 | -0.314 | -0.101 | 1.18 | 1.24 | 1.43 | -1.21 | 0.456 | -0.529 | -0.152 | 0.39
9 | AGGAAUGUUCCUUCUUUGCC | -0.812 | -0.469 | 0.276 | -0.309 | 0.63 | -2.13 | 2.32 | -0.098 | -0.0855 | -1.4 | 0.683 | -0.446 | 2.6 | -0.0682
10 | AGGACCUGCGGGACAAGAUUCUU | -0.45 | 0.243 | 0.102 | -0.425 | -0.0464 | -0.188 | 1.33 | -0.0205 | -0.207 | 0.115 | -0.0697 | -0.476 | 0.526 | 0.35
